Data published in patent US11046700B2, “Substituted imidazo[1,2-a]pyrazines, pyrazolo[1,5-c]pyrimidines, pyrazolo[1,5-a]pyridines, and purines for the treatment of schistosomiasis” (Merck Patent GmbH, priority 2017, dated 2021).

What was measured:
[1] = tested on: S. mansoni juvenile worms; assay: In vitro assay, S. mansoni juvenile worms; format: cell-based; details: Schistosoma mansoni; S. mansoni juvenile worms, in vitro; read-out: (b) Juvenile
Method: (§1) The routine biological assays using adult or juvenile worms and cytotoxicity assays using MRC-5 cells have been disclosed previously in Mansour, N. R., et al. (2016). “High Throughput Screening Identifies Novel Lead Compounds with Activity against Larval, Juvenile and Schistosoma mansoni PLoS Negl Trap Dis 10(4): e0004659. Cytotoxicity assays using the HepG2 cell line were carried out as described in Molecular Diversity (2015) 19, 251-261.
(b) S. mansoni juvenile worms

[2] = tested on: S. mansoni adult worms; assay: In vitro assay, S. mansoni adult worms; format: cell-based; details: Schistosoma mansoni; S. mansoni adult worms, in vitro; read-out: (a) Adult
Method: as §1
(a) S. mansoni adult worms

Row | Structure (SMILES) | IC50 [1] [nM] | IC50 [2] [nM]
1 | Cc1nc2cnc(-c3cccc(C(F)(F)F)c3)cn2c1-c1ccc(O)cc1 [Example 4, 4-[2-methyl-6-[3-(trifluoromethyl)phenyl]imidazo[1,2-a]pyrazin-3-yl]phenol] | 1420 | 490
2 | COc1cc(-c2c(C)nc3cnc(-c4cccc(C(F)(F)F)c4)cn23)ccc1O [Example 5, 2-methoxy-4-(2-methyl-6-(3-(trifluoromethyl)phenyl)imidazo[1,2-a]pyrazin-3-yl)] | 1270 | 520
3 | Oc1ccc(-c2c(C(F)F)nc3cnc(-c4cccc(C(F)(F)F)c4)cn23)c(F)c1 [Example 11, 3-fluoro-4-[2-difluoromethyl-6-[3-(trifluoromethyl)phenyl]imidazo[1,2-a]pyrazin-3-yl]phenol] | 490 | 
4 | Oc1ccc(-c2c(C(F)(F)F)nc3cnc(-c4cccc(C(F)(F)F)c4)cn23)c(F)c1 [Example 12, 3-fluoro-4-[2-trifluoromethyl-6-[3-(trifluoromethyl)phenyl]imidazo[1,2-a]pyrazin-3-yl]phenol] | 250 | < 49
5 | COc1ccc(-c2c(C3CC3)nc3cnc(-c4cccc(C(F)(F)F)c4)cn23)cc1O [Example 13, 2-methoxy-5-[2-cyclopropyl-6-[3-(trifluoromethyl)phenyl]imidazo[1,2-a]pyrazin-3-yl]phenol] | 63 | 72
6 | Oc1ccc(-c2c(C3CC3)nc3cnc(-c4cccc(C(F)(F)F)c4)cn23)c(F)c1 [Example 14, 3-fluoro-4-[2-cyclopropyl-6-[3-(trifluoromethyl)phenyl]imidazo[1,2-a]pyrazin-3-yl]phenol] | 230 | 
7 | CCCc1nc2cnc(-c3cccc(C(F)(F)F)c3)cn2c1-c1ccc(OC)c(O)c1 [Example 18, 2-methoxy-5-[2-(propan-1-yl)-6-[3-(trifluoromethyl)phenyl]imidazo[1,2-a]pyrazin-3-yl]phenol] | 290 | 
8 | COc1cc(O)ccc1-c1c(C(C)C)nc2cnc(-c3cccc(C(F)(F)F)c3)cn12 [Example 20, 4-(2-isopropyl-6-(3-(trifluoromethyl)phenyl)imidazo[1,2-a]pyrazin-3-yl)-3-methoxyphenol] | 1040 | 920
9 | COc1ccc(-c2c(C)nn3cnc(-c4cccc(C(F)(F)F)c4)cc23)cc1O [Example 23, 2-methoxy-5-(2-methyl-5-(3-(trifluoromethyl)phenyl)pyrazolo[1,5-c]pyrimidin-3-yl)phenol] | 790 | 
10 | COc1ccc(-c2c(C(C)C)nn3cnc(-c4cccc(C(F)(F)F)c4)cc23)cc1O [Example 25, 5-(2-isopropyl-5-(3-(trifluoromethyl)phenyl)pyrazolo[1,5-c]pyrimidin-3-yl)-2-methoxyphenol] | 110 | 
11 | COc1ccc(-c2c(CC3CC3)nc3cnc(-c4cccc(C(F)(F)F)c4)cn23)cc1O [Example 26, 2-methoxy-5-[2-(cyclopropylmethyl)-6-[3-(trifluoromethyl)phenyl]imidazo[1,2-a]pyrazin-3-yl]phenol] | 220 | 
12 | COc1ccc(-c2c(C(C)C)nc3cnc(-c4ccc(F)c(C(F)(F)F)c4)cn23)cc1O [Example 27, 2-methoxy-5-[2-(propan-2-yl)-6-[4-fluoro-3-(trifluoromethyl)phenyl]imidazo[1,2-a]pyrazin-3-yl]phenol] | 149 | < 49
13 | Cc1nc2cnc(-c3cccc(S(F)(F)(F)(F)F)c3)cn2c1-c1c(F)cc(O)cc1F [Example 31, 3,5-difluoro-4-[2-methyl-6-[3-(pentafluorosulfanyl)phenyl]imidazo[1,2-a]pyrazin-3-yl]phenol] | 100 | 
14 | Oc1cc(F)c(-c2c(CC(F)(F)F)nc3cnc(-c4ccc(F)c(C(F)(F)F)c4)cn23)c(F)c1 [Example 38, 3,5-difluoro-4-(6-(4-fluoro-3-(trifluoromethyl)phenyl)-2-(2,2,2-trifluoroethyl)imidazo[1,2-a]pyrazin-3-yl)phenol] | 140 | 
15 | Cc1nn2cnc(-c3ccc(F)c(C(F)(F)F)c3)cc2c1-c1c(F)cc(O)cc1F [Example 42, 3,5-difluoro-4-(5-(4-fluoro-3-(trifluoromethyl)phenyl)-2-methylpyrazolo[1,5-c]pyrimidin-3-yl)phenol] | 110 | 
16 | Fc1ccc(-c2cn3c(-c4ccc5[nH]ncc5c4F)c(C4CC4)nc3cn2)cc1C(F)(F)F [Example 43, 2-cyclopropyl-3-(4-fluoro-1H-indazol-5-yl)-6-(4-fluoro-3-(trifluoromethyl)phenyl)imidazo[1,2-a]pyrazine] | 110 | 
17 | Fc1ccc(-c2cn3c(-c4ccc5[nH]ncc5c4F)c(C4CC4)nc3cn2)cc1C(F)(F)C(F)(F)F [Example 54, 5-{2-cyclopropyl-6-[4-fluoro-3-(1,1,2,2,2-pentafluoroethyl)phenyl]imidazo[1,2-a]pyrazin-3-yl}-4-fluoro-1H-indazole] | 37 | 23
18 | Fc1ccc(-c2cc3c(-c4ccc5[nH]ncc5c4F)c(C4CC4)nn3cn2)cc1C(F)(F)C(F)(F)F [Example 59, 2-Cyclopropyl-3-(4-fluoro-1H-indazol-5-yl)-5-(4-fluoro-3-pentafluoroethyl-phenyl)-pyrazolo[1,5-c]pyrimidine] | 36 | 66
19 | Oc1cc(F)c(-c2c(C3CC3)nn3cnc(-c4ccc(F)c(C(F)(F)F)c4)cc23)c(F)c1 [Example 60, 4-[2-Cyclopropyl-5-(4-fluoro-3-trifluoromethyl-phenyl)-pyrazolo[1,5-c]pyrimidin-3-yl]-3,5-difluoro-phenol] | 21 | 17
20 | CC(C)c1nn2cnc(-c3ccc(F)c(C(F)(F)F)c3)cc2c1-c1ccc2[nH]ncc2c1F [Example 61, 3-(4-Fluoro-1H-indazol-5-yl)-5-(4-fluoro-3-trifluoromethyl-phenyl)-2-isopropylpyrazolo[1,5-c]pyrimidine] | 60 | 37
21 | Cc1nc2cnc(-c3ccc(F)c(S(F)(F)(F)(F)F)c3)cn2c1-c1ccc2[nH]ncc2c1F [Example 64, 3-(4-Fluoro-1H-indazol-5-yl)-6-(4-fluoro-3-pentafluorosulfanyl-phenyl)-2-methyl-imidazo[1,2-a]pyrazine] | 77 | 26
22 | CC(C)c1nc2cnc(-c3ccc(F)c(S(F)(F)(F)(F)F)c3)cn2c1-c1ccc2[nH]ncc2c1F [Example 68, 3-(4-Fluoro-1H-indazol-5-yl)-6-(4-fluoro-3-pentafluorosulfanyl-phenyl)-2-isopropyl-imidazo[1,2-a]pyrazine] | 10 | 11
23 | Fc1c(-c2c(C(F)(F)F)nc3cnc(-c4cccc(C(F)(F)F)c4)cn23)ccc2[nH]ncc12 [Example 70, 3-(4-Fluoro-1H-indazol-5-yl)-2-trifluoromethyl-6-(3-trifluoromethyl-phenyl)-imidazo[1,2-a]pyrazine] | 41 | 25
24 | CC(C)c1nc2cnc(-c3cccc(Br)c3)cn2c1-c1ccc2[nH]ncc2c1F [Example 73, 6-(3-Bromo-phenyl)-3-(4-fluoro-1H-indazol-5-yl)-2-isopropyl-imidazo[1,2-a]pyrazine] | 27 | 36
25 | Fc1ccc(-c2cn3c(-c4ccc5[nH]ncc5c4F)c(C4CCC4)nc3cn2)cc1C(F)(F)F [Example 76, 2-Cyclobutyl-3-(4-fluoro-1H-indazol-5-yl)-6-(4-fluoro-3-trifluoromethyl-phenyl)-imidazo[1,2-a]pyrazine] | 36 | 37
